Experimental data reported in PMC3783749 (Indian Journal of Pharmaceutical Sciences, 2013).
Converted amounts (≈) assume the structure as drawn.

Tests used:
[1] = test system: Klebsiella pneumoniae ATCC 10031; experiment: MIC by broth microdilution method; assay type: cell-based; conditions: Gram-negative; 37°, 18 h
[2] = test system: Candida tropicalis (ATCC 1369); experiment: Antifungal MIC by broth dilution; assay type: cell-based; conditions: read-out: MIC values, Ct

| MIC values, Kp [1] | MIC [2] | Structure (SMILES) |
| --- | --- | --- |
| 31.25 µg/mL (≈ 121 µM) | – | Cc1ccc(C)n1-c1ccc(C(=O)NNC=O)cc1 [Compound 5, 4-(2,5-dimethyl-1H-pyrrol-1-yl)-N’-formylbenzohydrazide] |
| – | 31.2 µg/mL (≈ 87 µM) | Cc1ccc(C)n1-c1ccc(-c2nnc(-c3ccccc3[N+](=O)[O-])[nH]2)cc1 [Compound 4f, 3-(4-(2,5-Dimethyl-1H-pyrrol-1-yl)phenyl)-5-(2-nitrophenyl)-4H-1,2,4-triazole] |
| – | 31.2 µg/mL (≈ 94.6 µM) | Cc1ccc(C)n1-c1ccc(-c2nnc(-c3ccc(O)cc3)[nH]2)cc1 [Compound 4g, 4-(5-(4-(2,5-Dimethyl-1H-pyrrol-1-yl)phenyl)-4H-1,2,4-triazol-3-yl) phenol] |
| – | 31.2 µg/mL (≈ 87 µM) | Cc1ccc(C)n1-c1ccc(-c2nnc(-c3cccc([N+](=O)[O-])c3)[nH]2)cc1 [Compound 4e, 3-(4-(2,5-Dimethyl-1H-pyrrol-1-yl)phenyl)-5-(3-nitrophenyl)-4H-1,2,4-triazole] |
